In the NIST ThermoML archive (doi:10.1021/je100707s):
Values joined by “and” are separate entries in the source; they are usually repeats but may differ in a detail not shown here. Equal entries are not always repeated.

Settings: Gas, Bellows volumetry

F/C=C/C(F)(F)F [trans-1,3,3,3-tetrafluoropropene]
Settings | mass density
310 K, 657 kPa | 34.36 kg/m3
310 K, 669 kPa | 35.06 kg/m3
310 K, 681 kPa | 35.86 kg/m3
310 K, 695 kPa | 36.78 kg/m3
320 K, 691 kPa | 34.42 kg/m3
320 K, 701 kPa | 35.05 kg/m3
320 K, 716 kPa | 35.92 kg/m3
320 K, 730 kPa | 36.8 kg/m3
320 K, 743 kPa | 37.6 kg/m3
320 K, 759 kPa | 38.61 kg/m3
320 K, 775 kPa | 39.62 kg/m3
320 K, 791 kPa | 40.64 kg/m3
320 K, 808 kPa | 41.76 kg/m3
320 K, 823 kPa | 42.77 kg/m3
320 K, 837 kPa | 43.67 kg/m3
320 K, 851 kPa | 44.36 kg/m3
320 K, 866 kPa | 45.45 kg/m3
320 K, 881 kPa | 46.49 kg/m3
320 K, 899 kPa | 47.75 kg/m3
320 K, 910 kPa | 48.63 kg/m3
330 K, 718 kPa | 34.26 kg/m3
330 K, 731 kPa | 34.99 kg/m3
330 K, 746 kPa | 35.85 kg/m3
330 K, 762 kPa | 36.76 kg/m3
330 K, 778 kPa | 37.66 kg/m3
330 K, 792 kPa | 38.48 kg/m3
330 K, 810 kPa | 39.52 kg/m3
330 K, 828 kPa | 40.65 kg/m3
330 K, 844 kPa | 41.61 kg/m3
330 K, 866 kPa | 42.95 kg/m3
330 K, 893 kPa | 44.43 kg/m3
330 K, 908 kPa | 45.39 kg/m3
330 K, 927 kPa | 46.54 kg/m3
330 K, 943 kPa | 47.55 kg/m3
330 K, 961 kPa | 48.73 kg/m3
330 K, 981 kPa | 50.03 kg/m3
330 K, 1001 kPa | 51.36 kg/m3
330 K, 1020 kPa | 52.67 kg/m3
330 K, 1041 kPa | 54.12 kg/m3
330 K, 1063 kPa | 55.64 kg/m3
330 K, 1075 kPa | 56.44 kg/m3
330 K, 1097 kPa | 57.98 kg/m3
330 K, 1113 kPa | 59.21 kg/m3
330 K, 1139 kPa | 61.03 kg/m3
330 K, 1165 kPa | 63.02 kg/m3
340 K, 747 kPa | 34.24 kg/m3
340 K, 762 kPa | 35.03 kg/m3
340 K, 778 kPa | 35.89 kg/m3
340 K, 794 kPa | 36.75 kg/m3
340 K, 810 kPa | 37.63 kg/m3
340 K, 827 kPa | 38.54 kg/m3
340 K, 845 kPa | 39.55 kg/m3
340 K, 864 kPa | 40.55 kg/m3
340 K, 882 kPa | 41.66 kg/m3
340 K, 903 kPa | 42.85 kg/m3
340 K, 921 kPa | 43.82 kg/m3
340 K, 933 kPa | 44.41 kg/m3
340 K, 953 kPa | 45.51 kg/m3
340 K, 971 kPa | 46.56 kg/m3
340 K, 989 kPa | 47.62 kg/m3
340 K, 1008 kPa | 48.82 kg/m3
340 K, 1030 kPa | 50.12 kg/m3
340 K, 1049 kPa | 51.33 kg/m3
340 K, 1069 kPa | 52.63 kg/m3
340 K, 1090 kPa | 53.99 kg/m3
340 K, 1117 kPa | 55.66 kg/m3
340 K, 1134 kPa | 56.71 kg/m3
340 K, 1154 kPa | 58.04 kg/m3
340 K, 1175 kPa | 59.4 kg/m3
340 K, 1196 kPa | 60.76 kg/m3
340 K, 1218 kPa | 62.25 kg/m3
340 K, 1238 kPa | 63.68 kg/m3
340 K, 1262 kPa | 65.39 kg/m3
340 K, 1284 kPa | 67.01 kg/m3
340 K, 1305 kPa | 68.59 kg/m3
340 K, 1308 kPa | 68.83 kg/m3
340 K, 1331 kPa | 70.6 kg/m3 and 70.59 kg/m3
340 K, 1354 kPa | 72.27 kg/m3
340 K, 1356 kPa | 72.51 kg/m3
340 K, 1378 kPa | 74.19 kg/m3
340 K, 1384 kPa | 74.55 kg/m3
340 K, 1398 kPa | 75.77 kg/m3
340 K, 1420 kPa | 77.51 kg/m3
340 K, 1441 kPa | 79.28 kg/m3
340 K, 1465 kPa | 81.46 kg/m3
340 K, 1482 kPa | 83.02 kg/m3
340 K, 1490 kPa | 83.71 kg/m3
350 K, 777 kPa | 34.25 kg/m3
350 K, 794 kPa | 35.1 kg/m3
350 K, 809 kPa | 35.85 kg/m3
350 K, 824 kPa | 36.66 kg/m3
350 K, 841 kPa | 37.55 kg/m3
350 K, 861 kPa | 38.6 kg/m3
350 K, 880 kPa | 39.57 kg/m3
350 K, 899 kPa | 40.59 kg/m3
350 K, 921 kPa | 41.8 kg/m3
350 K, 943 kPa | 42.97 kg/m3
350 K, 974 kPa | 44.44 kg/m3
350 K, 992 kPa | 45.42 kg/m3
350 K, 1009 kPa | 46.4 kg/m3
350 K, 1033 kPa | 47.69 kg/m3
350 K, 1050 kPa | 48.68 kg/m3
350 K, 1073 kPa | 49.96 kg/m3
350 K, 1081 kPa | 50.42 kg/m3
350 K, 1097 kPa | 51.34 kg/m3
350 K, 1118 kPa | 52.57 kg/m3
350 K, 1146 kPa | 54.28 kg/m3
350 K, 1166 kPa | 55.47 kg/m3
350 K, 1184 kPa | 56.54 kg/m3
350 K, 1212 kPa | 58.14 kg/m3
350 K, 1228 kPa | 59.18 kg/m3
350 K, 1253 kPa | 60.74 kg/m3
350 K, 1281 kPa | 62.46 kg/m3
350 K, 1299 kPa | 63.7 kg/m3
350 K, 1325 kPa | 65.31 kg/m3
350 K, 1352 kPa | 67.13 kg/m3
350 K, 1374 kPa | 68.68 kg/m3
350 K, 1376 kPa | 68.87 kg/m3
350 K, 1400 kPa | 70.45 kg/m3
350 K, 1403 kPa | 70.69 kg/m3
350 K, 1422 kPa | 72.01 kg/m3
350 K, 1434 kPa | 72.82 kg/m3
350 K, 1451 kPa | 74.02 kg/m3
350 K, 1460 kPa | 74.47 kg/m3
350 K, 1474 kPa | 75.65 kg/m3
350 K, 1499 kPa | 77.45 kg/m3
350 K, 1526 kPa | 79.54 kg/m3
350 K, 1552 kPa | 81.57 kg/m3
350 K, 1580 kPa | 83.73 kg/m3
350 K, 1611 kPa | 86.28 kg/m3
350 K, 1645 kPa | 88.62 kg/m3
350 K, 1667 kPa | 90.44 kg/m3
350 K, 1692 kPa | 92.58 kg/m3
350 K, 1722 kPa | 95.16 kg/m3
350 K, 1748 kPa | 97.5 kg/m3
350 K, 1773 kPa | 99.83 kg/m3
350 K, 1798 kPa | 102.24 kg/m3
350 K, 1822 kPa | 104.65 kg/m3
350 K, 1850 kPa | 107.61 kg/m3
350 K, 1869 kPa | 109.92 kg/m3
360 K, 806 kPa | 34.26 kg/m3
360 K, 822 kPa | 35.02 kg/m3
360 K, 838 kPa | 35.83 kg/m3
360 K, 858 kPa | 36.81 kg/m3
360 K, 872 kPa | 37.5 kg/m3
360 K, 893 kPa | 38.54 kg/m3
360 K, 914 kPa | 39.59 kg/m3
360 K, 934 kPa | 40.62 kg/m3
360 K, 957 kPa | 41.79 kg/m3
360 K, 980 kPa | 42.97 kg/m3
360 K, 996 kPa | 43.76 kg/m3
360 K, 1013 kPa | 44.41 kg/m3
360 K, 1032 kPa | 45.38 kg/m3
360 K, 1053 kPa | 46.47 kg/m3
360 K, 1076 kPa | 47.64 kg/m3
360 K, 1093 kPa | 48.62 kg/m3
360 K, 1123 kPa | 50.21 kg/m3
360 K, 1142 kPa | 51.25 kg/m3
360 K, 1164 kPa | 52.52 kg/m3
360 K, 1190 kPa | 53.97 kg/m3
360 K, 1217 kPa | 55.45 kg/m3
360 K, 1246 kPa | 56.97 kg/m3
360 K, 1249 kPa | 57.15 kg/m3
360 K, 1263 kPa | 57.94 kg/m3
360 K, 1285 kPa | 59.28 kg/m3
360 K, 1310 kPa | 60.71 kg/m3
360 K, 1335 kPa | 62.17 kg/m3
360 K, 1359 kPa | 63.66 kg/m3
360 K, 1386 kPa | 65.23 kg/m3
360 K, 1414 kPa | 66.98 kg/m3
360 K, 1438 kPa | 68.45 kg/m3
360 K, 1441 kPa | 68.77 kg/m3
360 K, 1466 kPa | 70.29 kg/m3 and 70.3 kg/m3
360 K, 1493 kPa | 72.04 kg/m3
360 K, 1502 kPa | 72.6 kg/m3
360 K, 1523 kPa | 73.94 kg/m3
360 K, 1535 kPa | 74.54 kg/m3
360 K, 1545 kPa | 75.43 kg/m3
360 K, 1580 kPa | 77.76 kg/m3
360 K, 1607 kPa | 79.57 kg/m3
360 K, 1634 kPa | 81.53 kg/m3
360 K, 1665 kPa | 83.71 kg/m3
360 K, 1695 kPa | 85.89 kg/m3
360 K, 1725 kPa | 87.95 kg/m3
360 K, 1737 kPa | 88.54 kg/m3
360 K, 1760 kPa | 90.28 kg/m3
360 K, 1787 kPa | 92.36 kg/m3
360 K, 1815 kPa | 94.55 kg/m3
360 K, 1850 kPa | 97.28 kg/m3
360 K, 1886 kPa | 100.24 kg/m3
360 K, 1926 kPa | 103.58 kg/m3
360 K, 1936 kPa | 104.54 kg/m3
360 K, 1964 kPa | 107.1 kg/m3
360 K, 1999 kPa | 110.25 kg/m3
360 K, 2157 kPa | 125.99 kg/m3
360 K, 2180 kPa | 128.5 kg/m3
360 K, 2212 kPa | 132.17 kg/m3
360 K, 2224 kPa | 133.7 kg/m3
360 K, 2247 kPa | 136.47 kg/m3
360 K, 2279 kPa | 140.52 kg/m3
360 K, 2287 kPa | 141.76 kg/m3
360 K, 2300 kPa | 143.52 kg/m3
